Among the data in ChEMBL document CHEMBL1132071, “Benzenesulfonamide derivatives of 2-substituted 4H-3,1-benzoxazin-4-ones and benzthiazin-4-ones as inhibitors of complement C1r protease” (Bioorg Med Chem Lett, 1999) are IC50, Control and inhibition values, retold here.

For assay [1], the target named is T1, Complement C1r subcomponent (Homo sapiens, UniProt P00736).
T1 sequence (P00736 whole entry): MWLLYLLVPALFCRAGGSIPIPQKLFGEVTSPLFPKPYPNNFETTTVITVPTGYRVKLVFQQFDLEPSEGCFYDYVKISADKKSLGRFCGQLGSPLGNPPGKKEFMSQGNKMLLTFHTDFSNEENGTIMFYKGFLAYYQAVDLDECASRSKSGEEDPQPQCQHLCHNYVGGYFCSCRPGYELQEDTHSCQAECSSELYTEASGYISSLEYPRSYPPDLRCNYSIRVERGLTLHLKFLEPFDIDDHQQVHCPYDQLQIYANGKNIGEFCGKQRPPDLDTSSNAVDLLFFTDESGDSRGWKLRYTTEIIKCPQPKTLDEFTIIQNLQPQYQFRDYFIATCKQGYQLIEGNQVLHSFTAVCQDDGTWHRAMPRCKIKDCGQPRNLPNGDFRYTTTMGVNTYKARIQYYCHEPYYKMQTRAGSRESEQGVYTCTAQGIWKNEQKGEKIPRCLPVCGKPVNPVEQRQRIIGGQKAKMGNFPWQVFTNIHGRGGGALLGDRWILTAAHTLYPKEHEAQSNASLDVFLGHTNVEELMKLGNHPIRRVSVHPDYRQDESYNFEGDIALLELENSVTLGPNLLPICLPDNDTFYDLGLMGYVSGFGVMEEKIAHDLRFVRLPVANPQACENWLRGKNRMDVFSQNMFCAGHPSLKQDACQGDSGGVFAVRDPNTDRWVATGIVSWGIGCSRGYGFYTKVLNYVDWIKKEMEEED
The assay is described as follows: In vitro inhibition of purified human C1r protease.

The nature of assay [2]: (§1) Inhibitory activity against hemolysis at 200 uM using suspension of sheep erythrocytes sensitized with antibodies to sheep erythrocytes. The class given is functional, Ovis aries. Also noted: scale not given: the % may be the effect or the level left.
Assay [3] addresses T1, Complement C1r subcomponent. The assay is described as follows: Evaluated in vitro for inhibitory activity against purified human C1r protease incubated in buffer for 60 minutes.
Assay [4] in a line: as §1. The assay is classed as functional. The conditions noted are these: Ovis aries.
The nature of assay [5]: Percent of inhibition at 200 uM was determined in hemolysis assay using suspension of sheep erythrocytes sensitized with antibodies to sheep erythrocytes. The assay is classed as functional, Ovis aries. Also noted: scale not given: the % may be the effect or the level left.
Assay [6] addresses T2, Complement C1r subcomponent (Homo sapiens) (UniProt P00736).
T2 sequence (whole entry): T1 sequence (P00736 whole entry)
The assay is described as follows: Compound was evaluated for inhibitory activity against purified human C1r protease at 62 uM was reported after 60 min.

In assay [7] the target is T2, Complement C1r subcomponent (Homo sapiens). Description: Compound was evaluated for inhibitory activity against purified human C1r protease at 31.2 uM.
Assay [8] has the same target. Description: Compound was evaluated for inhibitory activity against purified human C1r protease at 15 uM concentration.
The nature of assay [9]: Compound was evaluated for inhibitory activity in hemolysis assay using suspension of sheep erythrocytes sensitized with antibodies to sheep erythrocytes. The assay is classed as functional, Ovis aries.

Some results are limits rather than exact numbers.

Consider `CN(c1nc2ccccc2c(=O)s1)S(=O)(=O)c1ccccc1`, for which the 50% inhibitory concentration (IC50) in assay [1] was greater than 62.5 µM. The Control in assay [2] is 162%.
As for `COc1ccc(S(=O)(=O)N(C)c2nc3ccccc3c(=O)s2)cc1`, in [1], the IC50 is greater than 62.5 µM.
In the case of `COc1ccc(S(=O)(=O)N(C)c2nc3ccccc3c(=O)o2)cc1`, the half-maximal inhibitory concentration (IC50) in [1] came to 0.7 µM; in assay [3] it was 6 µM. The inhibition at 200 µM in assay [4] came out at 80%.
With `CCN(c1nc2ccccc2c(=O)o1)S(=O)(=O)c1ccccc1`, the IC50 in assay [1] came out at 3.2 µM; in [3] it was 8.3 µM. For the same compound, the inhibition at 200 µM in [4] is 86%.
Consider `O=c1oc(Nc2ccccc2I)nc2cc(C(F)(F)F)ccc12`, for which the Control in [5] worked out at 146%.
In assay [1], `Cc1ccc(S(=O)(=O)N(C)c2nc3ccccc3c(=O)o2)cc1` had an IC50 of 7.8 µM. The inhibition in [6] worked out at 40%.
As to `CCN(c1nc2ccccc2c(=O)o1)S(=O)(=O)c1ccc(Cl)cc1`, the IC50 in assay [1] was found to be 30 µM; in assay [3], 62 µM.
Turning to `CN(c1nc2ccccc2c(=O)o1)S(=O)(=O)c1ccc(Cl)cc1`, the half-maximal inhibitory concentration (IC50) in assay [3] was greater than 62 µM. In assay [7], the inhibition worked out at 40%.
In turn, `CN(c1nc2ccccc2c(=O)o1)S(=O)(=O)c1ccc([N+](=O)[O-])cc1` had a 50% inhibitory concentration (IC50) in [1] of 31 µM.
In the case of `CN(c1nc2ccccc2c(=O)o1)S(=O)(=O)c1ccccc1Br`, the IC50 came to 2.8 µM in [1] and 25 µM in [3].
In turn, `CN(c1nc2ccccc2c(=O)o1)S(=O)(=O)c1ccc(Cl)c(Cl)c1` gave a half-maximal inhibitory concentration (IC50) in assay [3] greater than 62.5 µM. The same compound came in with an inhibition in assay [8] of 20%.
With `N=C(N)Nc1ccc(C(=O)Oc2ccc3cc(C(=N)N)ccc3c2)cc1` [NAFAMOSTAT], in assay [9], the IC50 is 16.6 µM.
In the case of `CN(c1nc2ccccc2c(=O)o1)S(=O)(=O)c1ccccc1`, the 50% inhibitory concentration (IC50) in assay [1] was 4 µM; in assay [3] it was 6 µM. Besides, in [2], the Control worked out at 162%.
Regarding `CN(c1nc2ccccc2c(=O)o1)S(=O)(=O)c1c(Cl)cccc1Cl`, the IC50 in assay [1] is 7.5 µM; in [3] it was greater than 62 µM.
For the compound `CN(c1nc2ccccc2c(=O)o1)S(=O)(=O)c1cccc2ccccc12`, the IC50 in assay [1] was determined as 6 µM; in [3], 10 µM. In addition, the inhibition at 200 µM in assay [4] is 56%.
As for `CN(c1nc2ccccc2c(=O)o1)S(=O)(=O)c1ccc(N)cc1`, the 50% inhibitory concentration (IC50) in [1] is 7 µM; in assay [3] it was 62 µM; in assay [9], 8 µM.
In the case of `CN(c1nc2ccccc2c(=O)o1)S(=O)(=O)c1ccc(NC(=N)N)cc1`, the half-maximal inhibitory concentration (IC50) in assay [1] stood at 1.5 µM; in assay [3], 3 µM; in assay [9], 18 µM.
`CN(c1nc2ccccc2c(=O)o1)S(=O)(=O)c1ccc(C#N)cc1` had a half-maximal inhibitory concentration (IC50) in assay [1] of 20 µM. Further, the inhibition in assay [6] came out at 30%.
Turning to `CN(c1nc2ccccc2c(=O)o1)S(=O)(=O)c1ccc(C(C)(C)C)cc1`, the IC50 in assay [1] and in [3] was greater than 60 µM throughout.
Turning to `CN(c1nc2ccccc2c(=O)o1)S(=O)(=O)c1cccc(Cl)c1`, the IC50 in assay [1] amounted to 24 µM; in assay [3] it was 58 µM. In assay [4], the inhibition at 200 µM is 49%.
